The results in this text go back to PubChem BioAssay AID504497 (Sanford-Burnham Center for Chemical Genomics, 2011).

In the experiment the target is Sentrin-specific protease 7 (Homo sapiens) (UniProt Q9BQF6). The experiment is described as follows: inhibition of human SENP7 cleavage activity – biochemical, luminescence, SAR follow-up (AID 504497). Conditions: recombinant SENP7, Z-RLRGG-aminoluciferin luminescence.
Sentrin-specific protease 7 (Homo sapiens), sequence (Q9BQF6 706-1050 limits assumed): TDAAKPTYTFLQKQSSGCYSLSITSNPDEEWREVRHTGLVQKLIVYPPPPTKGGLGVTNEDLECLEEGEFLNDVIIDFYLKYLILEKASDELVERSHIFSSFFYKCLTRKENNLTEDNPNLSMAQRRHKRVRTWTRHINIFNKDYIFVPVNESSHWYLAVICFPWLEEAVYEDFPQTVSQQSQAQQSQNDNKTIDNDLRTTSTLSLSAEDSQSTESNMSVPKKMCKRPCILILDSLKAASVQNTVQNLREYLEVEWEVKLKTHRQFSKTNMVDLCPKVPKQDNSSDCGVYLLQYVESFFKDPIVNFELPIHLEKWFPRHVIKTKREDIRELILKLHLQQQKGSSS

In the case of `N#Cc1c(NC(=O)CSc2ncn[nH]2)sc2c1CCCCC2`, the IC50 (usually the midpoint of a concentration-inhibition curve) is 5.66 µM.
